This is an account of results in publication PMC5218480 (PLoS ONE, 2017).

This test concerns MV-4-11 cells. The experiment in a line: Gene expression microarray analysis (Affymetrix PrimeView) and GSEA. In kind it is cell-based, human. Further details: RFU PODN (11730768_x_at) / Fold change /veh PODN (11730768_x_at) / RFU LINC00158 (11744669_a_at) / Fold change /veh LINC00158 (11744669_a_at) / RFU DUSP10 (11751237_a_at) / Fold change /veh DUSP10 (11751237_a_at) / RFU ID3 (11757404_x_at) / Fold change /veh ID3 (11757404_x_at) / RFU PLEKHG5 (11737974_s_at) / Fold change /veh PLEKHG5 (11737974_s_at) / RFU LRRC4B (11730491_at) / Fold change /veh LRRC4B (11730491_at) / RFU GIMAP4 (11747438_a_at) / Fold change /veh GIMAP4 (11747438_a_at) / RFU KRT8 (11758183_x_at) / Fold change /veh KRT8 (11758183_x_at) / RFU CNN1 (11734310_a_at) / Fold change /veh CNN1 (11734310_a_at) / RFU VPS37D (11726825_at) / Fold change /veh VPS37D (11726825_at) / RFU C10orf10 (11716522_x_at) / Fold change /veh C10orf10 (11716522_x_at) / RFU KIR2DL2 /// KIR2DL4 /// KIR2DL5A /// KIR2DL5B /// KIR2DS1 /// KIR2DS2 /// KIR2DS3 /// KIR2DS4 /// KIR3DL3 /// KIR3DL3 /// KIR3DS1 (11738374_at) / Fold change /veh KIR2DL2 /// KIR2DL4 /// KIR2DL5A /// KIR2DL5B /// KIR2DS1 /// KIR2DS2 /// KIR2DS3 /// KIR2DS4 /// KIR3DL3 /// KIR3DL3 /// KIR3DS1 (11738374_at) / RFU C1QL1 (11718748_at) / Fold change /veh C1QL1 (11718748_at) / RFU TMPRSS4 (11747572_a_at) / Fold change /veh TMPRSS4 (11747572_a_at) / RFU HAMP (11756126_x_at) / Fold change /veh HAMP (11756126_x_at) / RFU RNFT2 (11725882_a_at) / Fold change /veh RNFT2 (11725882_a_at) / RFU NR4A2 (11747474_a_at) / Fold change /veh NR4A2 (11747474_a_at) / RFU ABCC12 (11746883_a_at) / Fold change /veh ABCC12 (11746883_a_at) / RFU TMEM136 (11760407_x_at) / Fold change /veh TMEM136 (11760407_x_at) / RFU CLDN22 /// WWC2 (11732394_at) / Fold change /veh CLDN22 /// WWC2 (11732394_at) / RFU HLA-DPB1 (11760878_x_at) / Fold change /veh HLA-DPB1 (11760878_x_at) / RFU SPINT1 (11716480_a_at) / Fold change /veh SPINT1 (11716480_a_at) / RFU GAP43 (11754022_s_at) / Fold change /veh GAP43 (11754022_s_at) / RFU A4GNT (11735810_at) / Fold change /veh A4GNT (11735810_at) / RFU PRB3 (11715151_x_at) / Fold change /veh PRB3 (11715151_x_at) / RFU TUBB4B (11761932_at) / Fold change /veh TUBB4B (11761932_at) / RFU CAPN14 (11732068_a_at) / Fold change /veh CAPN14 (11732068_a_at) / RFU TMCC2 (11721928_a_at) / Fold change /veh TMCC2 (11721928_a_at) / RFU IRGQ (11745062_a_at) / Fold change /veh IRGQ (11745062_a_at) / RFU FAM174B (11720279_a_at) / Fold change /veh FAM174B (11720279_a_at) / RFU TMPRSS4 (11748680_a_at) / Fold change /veh TMPRSS4 (11748680_a_at) / RFU FAM212B (11763350_a_at) / Fold change /veh FAM212B (11763350_a_at) / RFU PLEKHG5 (11743358_a_at) / Fold change /veh PLEKHG5 (11743358_a_at) / RFU ZSCAN30 (11745921_a_at) / Fold change /veh ZSCAN30 (11745921_a_at) / RFU CMKLR1 (11741424_a_at) / Fold change /veh CMKLR1 (11741424_a_at) / RFU LOC101060620 /// MAPK8IP1 (11723275_at) / Fold change /veh LOC101060620 /// MAPK8IP1 (11723275_at) / RFU SPTSSB (11747773_x_at) / Fold change /veh SPTSSB (11747773_x_at) / RFU PRSS12 (11739890_at) / Fold change /veh PRSS12 (11739890_at) / RFU BIN1 (11741810_x_at) / Fold change /veh BIN1 (11741810_x_at) / RFU WNT11 (11732464_a_at) / Fold change /veh WNT11 (11732464_a_at) / RFU C10orf10 (11716521_a_at) / Fold change /veh C10orf10 (11716521_a_at) / RFU C5orf56 (11738089_at) / Fold change /veh C5orf56 (11738089_at) / RFU CYB561 (11721691_x_at) / Fold change /veh CYB561 (11721691_x_at) / RFU ANKRD19P (11752326_a_at) / Fold change /veh ANKRD19P (11752326_a_at) / RFU OR2T12 /// OR2T33 /// OR2T8 (11738714_s_at) / Fold change /veh OR2T12 /// OR2T33 /// OR2T8 (11738714_s_at) / RFU VCAN (11748164_a_at) / Fold change /veh VCAN (11748164_a_at) / RFU JSRP1 (11732532_at) / Fold change /veh JSRP1 (11732532_at) / RFU KRTAP10-11 (11738290_x_at) / Fold change /veh KRTAP10-11 (11738290_x_at) / RFU MYO3A (11730013_a_at) / Fold change /veh MYO3A (11730013_a_at) / RFU EBF3 (11725865_a_at) / Fold change /veh EBF3 (11725865_a_at) / RFU CAMK2N1 (11719241_x_at) / Fold change /veh CAMK2N1 (11719241_x_at) / RFU C5orf56 (11738088_a_at) / Fold change /veh C5orf56 (11738088_a_at) / RFU OLFML3 (11715873_a_at) / Fold change /veh OLFML3 (11715873_a_at) / RFU LOC100653217 /// NTM (11731650_a_at) / Fold change /veh LOC100653217 /// NTM (11731650_a_at) / RFU MAPK11 (11762145_a_at) / Fold change /veh MAPK11 (11762145_a_at) / RFU FIZ1 (11724087_x_at) / Fold change /veh FIZ1 (11724087_x_at) / RFU OASL (11726364_x_at) / Fold change /veh OASL (11726364_x_at) / RFU SOX15 (11748057_x_at) / Fold change /veh SOX15 (11748057_x_at) / RFU CD79A (11719716_a_at) / Fold change /veh CD79A (11719716_a_at) / RFU HIST1H1D (11736915_at) / Fold change /veh HIST1H1D (11736915_at) / RFU CASKIN2 (11723855_a_at) / Fold change /veh CASKIN2 (11723855_a_at) / RFU LOC730098 (11760151_x_at) / Fold change /veh LOC730098 (11760151_x_at) / RFU OR4N2 (11742367_at) / Fold change /veh OR4N2 (11742367_at) / RFU PRRT2 (11749266_a_at) / Fold change /veh PRRT2 (11749266_a_at) / RFU SNX32 (11753110_a_at) / Fold change /veh SNX32 (11753110_a_at) / RFU CDHR5 (11726645_a_at) / Fold change /veh CDHR5 (11726645_a_at) / RFU RCAN1 (11760418_a_at) / Fold change /veh RCAN1 (11760418_a_at) / RFU FAM167A (11723789_a_at) / Fold change /veh FAM167A (11723789_a_at) / RFU FAM26E (11764081_at) / Fold change /veh FAM26E (11764081_at) / RFU ISYNA1 (11749810_s_at) / Fold change /veh ISYNA1 (11749810_s_at) / RFU ACY1 (11761880_at) / Fold change /veh ACY1 (11761880_at) / RFU 11764098_at / Fold change /veh 11764098_at / RFU SAMD14 (11745864_x_at) / Fold change /veh SAMD14 (11745864_x_at) / RFU NPB (11741838_a_at) / Fold change /veh NPB (11741838_a_at) / RFU TMPRSS6 (11731388_a_at) / Fold change /veh TMPRSS6 (11731388_a_at) / RFU KRTAP10-2 (11738614_at) / Fold change /veh KRTAP10-2 (11738614_at) / RFU ARHGAP8 /// PRR5-ARHGAP8 (11727945_x_at) / Fold change /veh ARHGAP8 /// PRR5-ARHGAP8 (11727945_x_at) / RFU KRTAP5-7 /// NADSYN1 (11734609_at) / Fold change /veh KRTAP5-7 /// NADSYN1 (11734609_at) / RFU RASL12 (11751679_a_at) / Fold change /veh RASL12 (11751679_a_at) / RFU CDKN2B (11736163_a_at) / Fold change /veh CDKN2B (11736163_a_at) / RFU PRF1 (11729649_at) / Fold change /veh PRF1 (11729649_at) / RFU, ZNF638 /// ZNF638-IT1 / Fold change vs veh, ZNF638 /// ZNF638-IT1 / RFU, PANK3 / Fold change vs veh, PANK3 / RFU, SH3YL1 / Fold change vs veh, SH3YL1 / RFU, ZEB2 / Fold change vs veh, ZEB2 / RFU, NRIP1 / Fold change vs veh, NRIP1 / RFU, PTTG1IP / Fold change vs veh, PTTG1IP / RFU, CAPN2 / Fold change vs veh, CAPN2 / RFU, MED14 / Fold change vs veh, MED14 / RFU, SNORA58 / Fold change vs veh, SNORA58 / RFU, C1orf63 / Fold change vs veh, C1orf63 / RFU, LRRFIP1 / Fold change vs veh, LRRFIP1 / RFU, NDUFAF7 / Fold change vs veh, NDUFAF7 / RFU, SLC12A2 / Fold change vs veh, SLC12A2 / RFU, IBTK / Fold change vs veh, IBTK / RFU, ESF1 / Fold change vs veh, ESF1 / Fold change vs veh, TMEM50B / RFU, TAOK1 / Fold change vs veh, TAOK1 / RFU, ACBD3 / Fold change vs veh, ACBD3 / RFU, TMA16 / Fold change vs veh, TMA16 / RFU, RWDD3 / Fold change vs veh, RWDD3 / RFU, BCAT1 / Fold change vs veh, BCAT1 / RFU, EDEM3 / Fold change vs veh, EDEM3 / RFU, TMEM33 / Fold change vs veh, TMEM33 / RFU, WDR75 / Fold change vs veh, WDR75 / RFU, AHCTF1 / Fold change vs veh, AHCTF1 / RFU, TFRC / Fold change vs veh, TFRC / RFU, ZDHHC17 / Fold change vs veh, ZDHHC17 / RFU, NOM1 / Fold change vs veh, NOM1 / RFU, ARL8B / Fold change vs veh, ARL8B / RFU, ZBTB11 / Fold change vs veh, ZBTB11 / RFU, TAMM41 / Fold change vs veh, TAMM41 / RFU, KIAA1704 /// LOC100996395 / Fold change vs veh, KIAA1704 /// LOC100996395 / RFU, ING1 / Fold change vs veh, ING1 / RFU, TRMT61B / Fold change vs veh, TRMT61B / RFU, FUBP3 / Fold change vs veh, FUBP3 / RFU, TP53 / Fold change vs veh, TP53 / RFU, TNKS2 / Fold change vs veh, TNKS2 / RFU, ZFP14 / Fold change vs veh, ZFP14 / RFU, ACTR2 / Fold change vs veh, ACTR2 / RFU, PPP3R1 / Fold change vs veh, PPP3R1 / RFU, PIK3R1 / Fold change vs veh, PIK3R1 / RFU, HNRNPA1 / Fold change vs veh, HNRNPA1 / RFU, RNF170 / Fold change vs veh, RNF170 / RFU, ZNF28 / Fold change vs veh, ZNF28 / RFU, RNGTT / Fold change vs veh, RNGTT / RFU, OGT / Fold change vs veh, OGT / RFU, BRD1 / Fold change vs veh, BRD1 / RFU, MARS / Fold change vs veh, MARS / RFU, ZNF655 / Fold change vs veh, ZNF655 / RFU, FAHD1 / Fold change vs veh, FAHD1 / RFU, BDP1 / Fold change vs veh, BDP1 / RFU, LRRCC1 / Fold change vs veh, LRRCC1 / RFU, ARID1A / Fold change vs veh, ARID1A / RFU, ZNF146 / Fold change vs veh, ZNF146 / RFU, ZNF330 / Fold change vs veh, ZNF330 / RFU, GPN3 / Fold change vs veh, GPN3 / RFU, C9orf123 / Fold change vs veh, C9orf123 / RFU, N4BP2L2 / Fold change vs veh, N4BP2L2 / RFU, ARFIP1 / Fold change vs veh, ARFIP1 / RFU, FAM179B / Fold change vs veh, FAM179B / RFU, BCL10 / Fold change vs veh, BCL10 / RFU, UHRF1BP1L / Fold change vs veh, UHRF1BP1L / RFU, BET1 / Fold change vs veh, BET1 / RFU, CNOT2 / Fold change vs veh, CNOT2 / RFU, ZNF268 / Fold change vs veh, ZNF268 / Fold change vs veh, ZNF507 / RFU, DGCR2 / Fold change vs veh, DGCR2 / RFU, WDSUB1 / Fold change vs veh, WDSUB1 / Fold change vs veh, HSP90B1 /// MIR3652 / RFU, ADSS / Fold change vs veh, ADSS / RFU, GK / Fold change vs veh, GK / RFU, ZNF148 / Fold change vs veh, ZNF148 / RFU, TAF9 / Fold change vs veh, TAF9 / RFU, SLC1A5 / Fold change vs veh, SLC1A5 / RFU, SLMO2 / Fold change vs veh, SLMO2 / RFU, ABCC4 / Fold change vs veh, ABCC4 / RFU, LOC101060439 /// RAP1B / Fold change vs veh, LOC101060439 /// RAP1B / RFU, RFX7 / Fold change vs veh, RFX7 / RFU, GTPBP10 / Fold change vs veh, GTPBP10 / RFU, CNEP1R1 / Fold change vs veh, CNEP1R1 / RFU, BIVM-ERCC5 /// ERCC5 / Fold change vs veh, BIVM-ERCC5 /// ERCC5 / RFU, ILF3 / Fold change vs veh, ILF3 / RFU 11762660_at / Fold change /veh 11762660_at / RFU VCAN (11757783_s_at) / Fold change /veh VCAN (11757783_s_at) / RFU DDX43 (11728927_at) / Fold change /veh DDX43 (11728927_at) / RFU KRT8 (11758188_x_at) / Fold change /veh KRT8 (11758188_x_at) / RFU NKD1 (11759106_at) / Fold change /veh NKD1 (11759106_at) / RFU SRD5A1 (11742802_a_at) / Fold change /veh SRD5A1 (11742802_a_at) / RFU TPSAB1 /// TPSB2 (11721975_s_at) / Fold change /veh TPSAB1 /// TPSB2 (11721975_s_at) / RFU GSTM3 (11746129_a_at) / Fold change /veh GSTM3 (11746129_a_at) / RFU IL23R (11737362_x_at) / Fold change /veh IL23R (11737362_x_at) / RFU TMEM51 (11727254_a_at) / Fold change /veh TMEM51 (11727254_a_at) / RFU PIWIL2 (11732686_x_at) / Fold change /veh PIWIL2 (11732686_x_at) / RFU ORM1 (11744905_x_at) / Fold change /veh ORM1 (11744905_x_at) / RFU CCDC152 (11743942_at) / Fold change /veh CCDC152 (11743942_at) / RFU ECM1 (11717891_a_at) / Fold change /veh ECM1 (11717891_a_at) / RFU IL23R (11748794_a_at) / Fold change /veh IL23R (11748794_a_at) / RFU TNFAIP8L3 (11732012_x_at) / Fold change /veh TNFAIP8L3 (11732012_x_at) / RFU MBOAT4 (11741988_at) / Fold change /veh MBOAT4 (11741988_at) / RFU 11764193_at / Fold change /veh 11764193_at / RFU TMEM53 (11763286_at) / Fold change /veh TMEM53 (11763286_at) / RFU MAGEB2 (11727129_at) / Fold change /veh MAGEB2 (11727129_at) / RFU TMEM200A (11744735_a_at) / Fold change /veh TMEM200A (11744735_a_at) / RFU CCDC152 (11751479_a_at) / Fold change /veh CCDC152 (11751479_a_at) / RFU FAM211A (11726209_a_at) / Fold change /veh FAM211A (11726209_a_at) / RFU RGS16 (11746705_a_at) / Fold change /veh RGS16 (11746705_a_at) / RFU VCAN (11755009_s_at) / Fold change /veh VCAN (11755009_s_at) / RFU RHOB (11743442_s_at) / Fold change /veh RHOB (11743442_s_at) / RFU RGS16 (11720943_a_at) / Fold change /veh RGS16 (11720943_a_at) / RFU RGS16 (11720944_at) / Fold change /veh RGS16 (11720944_at) / RFU, VPS4B / Fold change vs veh, VPS4B / RFU, CREB1 / Fold change vs veh, CREB1 / RFU, DNAJC13 / Fold change vs veh, DNAJC13 / RFU, GNAQ / Fold change vs veh, GNAQ / RFU, CDK5R1 / Fold change vs veh, CDK5R1 / RFU, ZRANB3 / Fold change vs veh, ZRANB3 / RFU, CUL4A / Fold change vs veh, CUL4A / RFU, CCNY / Fold change vs veh, CCNY / RFU, UFL1 / Fold change vs veh, UFL1 / RFU, COG3 / Fold change vs veh, COG3 / RFU, DIAPH2 / Fold change vs veh, DIAPH2 / RFU, SKA2 / Fold change vs veh, SKA2 / RFU, AFF3 / Fold change vs veh, AFF3 / RFU, LMF1 / Fold change vs veh, LMF1 / RFU, IPO11 / Fold change vs veh, IPO11 / RFU, DFFB / Fold change vs veh, DFFB / RFU, FOXP1 / Fold change vs veh, FOXP1 / RFU, CARD8 / Fold change vs veh, CARD8 / RFU, STRN3 / Fold change vs veh, STRN3 / RFU, ADK / Fold change vs veh, ADK / RFU, RASSF2 / Fold change vs veh, RASSF2 / RFU, WIPF1 / Fold change vs veh, WIPF1 / RFU, LARP1B / Fold change vs veh, LARP1B / RFU, RASA1 / Fold change vs veh, RASA1 / RFU, RB1 / Fold change vs veh, RB1 / RFU, PPFIA1 / Fold change vs veh, PPFIA1 / RFU, MAT2A / Fold change vs veh, MAT2A / RFU, CCT5 / Fold change vs veh, CCT5 / RFU, WDR92 / Fold change vs veh, WDR92 / RFU, CUX1 / Fold change vs veh, CUX1 / RFU, TTC7A / Fold change vs veh, TTC7A / RFU, TMEM135 / Fold change vs veh, TMEM135 / RFU, DEPTOR / Fold change vs veh, DEPTOR / RFU, CPM / Fold change vs veh, CPM / RFU, DNAJB6 / Fold change vs veh, DNAJB6 / RFU, CACNA2D3 / Fold change vs veh, CACNA2D3 / RFU, DTX4 / Fold change vs veh, DTX4 / RFU, TFCP2 / Fold change vs veh, TFCP2 / RFU, GMCL1 /// GMCL1P1 / Fold change vs veh, GMCL1 /// GMCL1P1 / RFU, AEBP2 / Fold change vs veh, AEBP2 / RFU, SNHG1 /// SNORD22 /// SNORD25 /// SNORD26 /// SNORD27 /// SNORD28 /// SNORD29 /// SNORD31 / Fold change vs veh, SNHG1 /// SNORD22 /// SNORD25 /// SNORD26 /// SNORD27 /// SNORD28 /// SNORD29 /// SNORD31 / Fold change (Aza/veh), C12orf56 (ProbeSet 11735607_a_at) / Fold change (ACY-1035/veh), C12orf56 (ProbeSet 11735607_a_at) / Fold change (Aza/veh), FGFR1OP (ProbeSet 11751329_s_at) / Fold change (ACY-1035/veh), FGFR1OP (ProbeSet 11751329_s_at) / Fold change (Aza/veh), VPS36 (ProbeSet 11739960_a_at) / Fold change (ACY-1035/veh), VPS36 (ProbeSet 11739960_a_at) / RFU SYPL1 (11715823_x_at) / Fold change /veh SYPL1 (11715823_x_at) / RFU IGFBP7 (11715501_s_at) / Fold change /veh IGFBP7 (11715501_s_at) / RFU REEP3 (11722064_at) / Fold change /veh REEP3 (11722064_at) / RFU IGLL1 (11728026_x_at) / Fold change /veh IGLL1 (11728026_x_at): dose or concentration left out as unconfirmed. The note with it: ProbeSet 11731583_a_at; LIST D.

For the molecule `Nc1ccc(-c2cccs2)cc1NC(=O)c1ccc2c(c1)cc(C1CC1)n2CCN1CCOCC1` [ACY-1035], the “RFU, LARP1B” value stood at 84.89 RFU.
